Laboratory results as given in patent publication US20130143929A1, “FUNGICIDAL IMIDAZOLES” (EI DU PONT DE NEMOURS AND COMPANY, priority 2010, published 2013).
Marks after values point to notes of the source that are not given here.

What was measured:
Type in all cases: in vivo
[1] = system: Puccinia recondite f. sp. tritici (the causal agent of wheat leaf rust); test: Test A: wheat leaf rust, preventive spray on wheat seedlings, visual disease rating; details: wheat leaf rust, preventive spray on wheat seedlings
Method in brief: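 This was a preventive test: Puccinia recondite f. sp. tritici inoculum was applied one day after compound spray to run-off. Test suspensions were made in 50/50 acetone/water with 250 ppm surfactant, at 200 ppm (800 g/ha equivalent) or 40 ppm. Visual ratings of % disease control relative to controls were made after 24 h of saturated humidity and 7 growth-chamber days, all at 20° C.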

[2] = system: Botrytis cinerea (the causal agent of tomato Botrytis); test: Test C: tomato Botrytis, preventive spray on tomato seedlings, visual disease rating; details: tomato Botrytis, preventive spray on tomato seedlings
Method in brief: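 Preventive test: B. cinerea spore inoculation one day after tomato seedlings were sprayed to run-off with compound suspended in 50/50 acetone–water plus 250 ppm surfactant. Plants held 48 h at 20° C in saturated air, then 3 days at 24° C; visual ratings scored 100 (full control) to 0 versus controls; some entries used 40 ppm.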

[3] = system: Blumeria graminis f. sp. tritici (also known as Erysiphe graminis f. sp. tritici, the causal agent of wheat powdery mildew); test: Test D: wheat powdery mildew, preventive spray on wheat seedlings, visual disease rating; details: wheat powdery mildew, preventive spray on wheat seedlings
Method in brief: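 Preventive test: seedlings sprayed to run-off and inoculated with powdery mildew spores one day later. Suspensions were made in 50/50 acetone/water with 250 ppm Trem 014 surfactant (200 ppm equals 800 g/ha). Visual ratings after 8 days at 20 °C give percent disease control versus controls.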

[4] = system: Septoria tritici (the causal agent of wheat leaf blotch); test: Test B: wheat leaf blotch, preventive spray on wheat seedlings, visual disease rating; details: wheat leaf blotch, preventive spray on wheat seedlings
Method in brief: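 Preventive test: Septoria tritici spores applied one day after run-off spraying of seedlings (200 ppm equals 800 g/ha; some tests 40 ppm). After 48 h at 24 °C saturated atmosphere and 19 days at 20 °C, disease scored visually as % control relative to untreated plants.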

[5] = asterisk: 40 ppm test suspension
[6] = no asterisk (standard test suspension concentration, not 40 ppm)

Row | SMILES | Test A rating (100 = 100% disease control, 0 = no disease control relative to the controls) [1, 5] | Test C rating (100 = 100% disease control, 0 = no disease control relative to the controls) [2, 5] | Test D rating (100 = 100% disease control, 0 = no disease control relative to the controls) [3, 5] | Test B rating (100 = 100% disease control, 0 = no disease control relative to the controls) [4, 5] | Test A rating (100 = 100% disease control, 0 = no disease control relative to the controls) [1, 6] [%] | Test C rating (100 = 100% disease control, 0 = no disease control relative to the controls) [2, 6] [%] | Test D rating (100 = 100% disease control, 0 = no disease control relative to the controls) [3, 6] [%] | Test B rating (100 = 100% disease control, 0 = no disease control relative to the controls) [4, 6] [%]
1 | Cc1cc(C#N)ccc1C(O)c1c(Cl)nc(C)n1-c1c(F)cccc1F (stereo not shown) [compound 164] | 93* % | 0* % | 0* % | 100* % | – | – | – | –
2 | Cc1cc(C#N)ccc1C(O)c1c(Br)nc(C)n1-c1c(F)cccc1F (stereo not shown) [compound 165] | 80* % | 8* % | 13* % | 100* % | – | – | – | –
3 | Cc1nc(Cl)c(C(O)c2ccc(F)cc2Cl)n1-c1c(F)cc(F)cc1F (stereo not shown) [compound 166] | 100* % | 100* % | 43* % | 100* % | – | – | – | –
4 | Cc1nc(C)n(-c2c(F)cc(F)cc2F)c1C(O)c1ccc(F)cc1Cl (stereo not shown) [compound 169] | 100* % | 40* % | 0* % | 100* % | – | – | – | –
5 | Cc1ncc(C(O)c2c(F)cc(F)cc2F)n1-c1ccc(F)cc1Cl (stereo not shown) [compound 170] | – | – | – | – | 99 | 63 | 0 | 73
6 | Cc1ncc(C(O)c2ccc(F)cc2Cl)n1-c1ccc(F)cc1Cl (stereo not shown) [compound 171] | – | – | – | – | 100 | 95 | 0 | 100
7 | Cc1nc(Br)c(C(O)c2ccc(Cl)cc2)n1-c1ccc(F)cc1Br (stereo not shown) [compound 172] | – | – | – | – | 100 | 100 | 90 | 100
8 | Cc1cc(F)ccc1C(O)c1c(Br)nc(C)n1-c1ccc(F)cc1Br (stereo not shown) [compound 173] | – | – | – | – | 99 | 16 | 48 | 100
9 | Cc1ncc(C(O)c2c(F)cc(F)cc2F)n1-c1ccc(F)cc1Br (stereo not shown) [compound 174] | – | – | – | – | 88 | 0 | 0 | 35
10 | Cc1ncc(C(O)c2c(F)cc(F)cc2F)n1-c1ccc(F)cc1F (stereo not shown) [compound 175] | – | – | – | – | 97 | 9 | 0 | 3
11 | Cc1nc(Br)c(C(O)c2c(F)cc(F)cc2F)n1-c1ccc(F)cc1Br (stereo not shown) [compound 176] | – | – | – | – | 100 | 100 | 96 | 100
12 | Cc1nc(Br)c(C(O)c2c(F)cc(F)cc2F)n1-c1ccc(F)cc1F (stereo not shown) [compound 177] | – | – | – | – | 100 | 99 | 0 | 100
13 | Cc1nc(Br)c(C(O)c2ccc(F)cc2F)n1-c1c(F)cccc1F (stereo not shown) [compound 178] | 100* % | 96* % | 64* % | 100* % | – | – | – | –
14 | Cc1nc(Br)c(C(O)c2ccc(Cl)cc2F)n1-c1c(F)cccc1F (stereo not shown) [compound 179] | 68* % | 78* % | 43* % | 100* % | – | – | – | –
15 | Cc1nc(Cl)c(C(O)c2ccc(C#N)cc2F)n1-c1c(F)cccc1F (stereo not shown) [compound 180] | 0* % | 0* % | 0* % | 48* % | – | – | – | –
16 | Cc1ncc(C(O)c2cccnc2)n1-c1c(F)cc(F)cc1F (stereo not shown) [compound 181] | – | – | – | – | 0 | 0 | 0 | 1
17 | Cc1nc(Br)c(C(O)c2cccnc2)n1-c1c(F)cc(F)cc1F (stereo not shown) [compound 182] | – | – | – | – | 68 | 0 | 21 | 100
18 | COc1cc(F)c(-n2c(C)nc(Cl)c2C(O)c2ccc(F)cc2C)c(F)c1 (stereo not shown) [compound 183] | 86* % | 8* % | 0* % | 100* % | – | – | – | –
19 | Cc1cc(F)ccc1C(O)c1c(Br)nc(C)n1-c1c(F)cccc1Cl (stereo not shown) [compound 186] | 99* % | 99* % | 97* % | 100* % | – | – | – | –
20 | Cc1nc(Br)c(C(O)c2ccc(F)cc2Cl)n1-c1c(F)cccc1Cl (stereo not shown) [compound 188] | 100* % | 99* % | 99* % | 100* % | – | – | – | –
21 | Cc1ncc(C(O)c2ccc(F)cc2Cl)n1-c1ccc(F)cc1Br (stereo not shown) [compound 189] | – | – | – | – | 100 | 99 | 27 | 100
22 | Cc1nc(Br)c(C(O)c2ccc(F)cc2Cl)n1-c1ccc(F)cc1Br (stereo not shown) [compound 190] | – | – | – | – | 100 | 99 | 0 | 100
23 | Cc1ccc(C(O)c2c(Cl)nc(C)n2-c2c(F)cccc2F)c(C)c1 (stereo not shown) [compound 191] | 100* % | 80* % | 99* % | 100* % | – | – | – | –
24 | COc1cc(F)c(C(O)c2c(Cl)nc(C)n2-c2c(F)cccc2F)c(F)c1 (stereo not shown) [compound 192] | 100* % | 100* % | 53* % | 100* % | – | – | – | –
25 | Cc1nc(Cl)c(C(O)c2c(Cl)cccc2Cl)n1-c1c(F)cccc1F (stereo not shown) [compound 193] | 99* % | 59* % | 0* % | 100* % | – | – | – | –
